The results in this text go back to US8809359B2, “Phenyl amino pyrimidine bicyclic compounds and uses thereof” (YM Biosciences Australia Pty Ltd, priority 2012, dated 2014).

Format in all cases: biochemical
The target of one experiment is JAK1 (Homo sapiens, UniProt P23458). Nature of the experiment: Enzyme screening kinase assay, JAK1. As to the method: (§1) Kinase assays were performed based on the method reported by Anastassiadis, T; et al Nature Biotechnology (2011); 29 (11); p 1039-p 1045 (doi:10.1038/nbt.2017).
Sequence of JAK1 (P23458 whole entry): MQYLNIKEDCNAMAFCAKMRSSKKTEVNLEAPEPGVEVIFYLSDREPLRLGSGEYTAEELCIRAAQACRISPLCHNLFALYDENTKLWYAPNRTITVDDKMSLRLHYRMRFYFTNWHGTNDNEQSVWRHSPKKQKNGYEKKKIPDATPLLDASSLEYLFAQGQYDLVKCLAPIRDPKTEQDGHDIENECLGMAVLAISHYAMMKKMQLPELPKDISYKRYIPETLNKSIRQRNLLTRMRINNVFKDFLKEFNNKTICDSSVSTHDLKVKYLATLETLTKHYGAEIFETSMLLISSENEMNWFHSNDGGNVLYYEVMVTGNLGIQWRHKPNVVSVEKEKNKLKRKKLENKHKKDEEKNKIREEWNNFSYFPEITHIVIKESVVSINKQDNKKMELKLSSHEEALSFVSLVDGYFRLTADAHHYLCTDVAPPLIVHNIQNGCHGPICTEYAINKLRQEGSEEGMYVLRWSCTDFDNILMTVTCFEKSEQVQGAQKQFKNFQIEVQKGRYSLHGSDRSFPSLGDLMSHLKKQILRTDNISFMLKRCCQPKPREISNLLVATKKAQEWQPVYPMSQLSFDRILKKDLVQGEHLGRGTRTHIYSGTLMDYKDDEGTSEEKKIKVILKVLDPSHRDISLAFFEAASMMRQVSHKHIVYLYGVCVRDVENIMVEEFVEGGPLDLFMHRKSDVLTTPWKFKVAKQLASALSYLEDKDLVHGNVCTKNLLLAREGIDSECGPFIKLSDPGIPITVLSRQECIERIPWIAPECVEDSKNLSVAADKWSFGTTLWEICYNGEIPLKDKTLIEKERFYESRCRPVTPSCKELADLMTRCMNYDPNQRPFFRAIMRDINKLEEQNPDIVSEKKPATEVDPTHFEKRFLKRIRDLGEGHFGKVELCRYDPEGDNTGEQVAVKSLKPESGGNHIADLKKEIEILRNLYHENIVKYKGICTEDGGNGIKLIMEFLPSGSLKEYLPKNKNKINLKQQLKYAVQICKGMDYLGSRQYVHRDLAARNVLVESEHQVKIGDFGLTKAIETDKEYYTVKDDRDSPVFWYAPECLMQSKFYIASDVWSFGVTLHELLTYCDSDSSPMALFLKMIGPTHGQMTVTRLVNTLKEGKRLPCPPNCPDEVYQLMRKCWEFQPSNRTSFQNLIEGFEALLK
Another experiment addresses JAK2 (Homo sapiens, UniProt O60674). Nature of the experiment: Enzyme screening kinase assay, JAK2. The protocol: as §1
Another experiment addresses T1, JAK3 (Homo sapiens, UniProt P52333).
T1 sequence (P52333 1-1124): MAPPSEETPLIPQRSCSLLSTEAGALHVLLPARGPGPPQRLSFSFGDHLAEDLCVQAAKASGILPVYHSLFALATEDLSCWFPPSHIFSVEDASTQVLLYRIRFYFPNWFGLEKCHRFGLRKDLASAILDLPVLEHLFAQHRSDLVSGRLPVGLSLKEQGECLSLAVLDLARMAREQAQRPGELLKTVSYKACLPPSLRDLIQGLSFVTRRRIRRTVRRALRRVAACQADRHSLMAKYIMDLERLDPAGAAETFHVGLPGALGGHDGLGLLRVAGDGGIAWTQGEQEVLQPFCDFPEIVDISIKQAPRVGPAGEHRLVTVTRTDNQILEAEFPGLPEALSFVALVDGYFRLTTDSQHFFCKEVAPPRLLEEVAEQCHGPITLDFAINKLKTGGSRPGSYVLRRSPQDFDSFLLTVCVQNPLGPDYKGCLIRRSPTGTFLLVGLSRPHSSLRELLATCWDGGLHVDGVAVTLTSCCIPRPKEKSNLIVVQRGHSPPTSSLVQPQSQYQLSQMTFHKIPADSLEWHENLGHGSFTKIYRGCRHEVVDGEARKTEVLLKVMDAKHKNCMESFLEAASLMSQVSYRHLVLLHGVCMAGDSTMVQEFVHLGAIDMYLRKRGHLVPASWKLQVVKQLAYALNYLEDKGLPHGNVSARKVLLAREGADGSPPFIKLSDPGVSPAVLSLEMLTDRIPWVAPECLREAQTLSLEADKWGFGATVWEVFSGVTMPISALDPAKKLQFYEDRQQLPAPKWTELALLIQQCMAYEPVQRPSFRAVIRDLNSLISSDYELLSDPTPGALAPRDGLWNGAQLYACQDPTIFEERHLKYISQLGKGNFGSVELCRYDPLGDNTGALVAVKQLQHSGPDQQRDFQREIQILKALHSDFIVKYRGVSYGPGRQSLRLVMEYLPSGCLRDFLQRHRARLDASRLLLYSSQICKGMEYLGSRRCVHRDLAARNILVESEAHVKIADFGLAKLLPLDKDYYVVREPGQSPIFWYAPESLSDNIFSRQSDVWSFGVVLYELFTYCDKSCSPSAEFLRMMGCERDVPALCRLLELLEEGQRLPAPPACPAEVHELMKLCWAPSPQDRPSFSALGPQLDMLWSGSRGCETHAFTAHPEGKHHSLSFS
Nature of the experiment: Enzyme screening kinase assay, JAK3. As to the method:
as §1

In the next experiment the target is TYK2 (Homo sapiens, UniProt P29597). Nature of the experiment: Enzyme screening kinase assay, TYK2. The protocol: as §1
Sequence of TYK2 (P29597 whole entry): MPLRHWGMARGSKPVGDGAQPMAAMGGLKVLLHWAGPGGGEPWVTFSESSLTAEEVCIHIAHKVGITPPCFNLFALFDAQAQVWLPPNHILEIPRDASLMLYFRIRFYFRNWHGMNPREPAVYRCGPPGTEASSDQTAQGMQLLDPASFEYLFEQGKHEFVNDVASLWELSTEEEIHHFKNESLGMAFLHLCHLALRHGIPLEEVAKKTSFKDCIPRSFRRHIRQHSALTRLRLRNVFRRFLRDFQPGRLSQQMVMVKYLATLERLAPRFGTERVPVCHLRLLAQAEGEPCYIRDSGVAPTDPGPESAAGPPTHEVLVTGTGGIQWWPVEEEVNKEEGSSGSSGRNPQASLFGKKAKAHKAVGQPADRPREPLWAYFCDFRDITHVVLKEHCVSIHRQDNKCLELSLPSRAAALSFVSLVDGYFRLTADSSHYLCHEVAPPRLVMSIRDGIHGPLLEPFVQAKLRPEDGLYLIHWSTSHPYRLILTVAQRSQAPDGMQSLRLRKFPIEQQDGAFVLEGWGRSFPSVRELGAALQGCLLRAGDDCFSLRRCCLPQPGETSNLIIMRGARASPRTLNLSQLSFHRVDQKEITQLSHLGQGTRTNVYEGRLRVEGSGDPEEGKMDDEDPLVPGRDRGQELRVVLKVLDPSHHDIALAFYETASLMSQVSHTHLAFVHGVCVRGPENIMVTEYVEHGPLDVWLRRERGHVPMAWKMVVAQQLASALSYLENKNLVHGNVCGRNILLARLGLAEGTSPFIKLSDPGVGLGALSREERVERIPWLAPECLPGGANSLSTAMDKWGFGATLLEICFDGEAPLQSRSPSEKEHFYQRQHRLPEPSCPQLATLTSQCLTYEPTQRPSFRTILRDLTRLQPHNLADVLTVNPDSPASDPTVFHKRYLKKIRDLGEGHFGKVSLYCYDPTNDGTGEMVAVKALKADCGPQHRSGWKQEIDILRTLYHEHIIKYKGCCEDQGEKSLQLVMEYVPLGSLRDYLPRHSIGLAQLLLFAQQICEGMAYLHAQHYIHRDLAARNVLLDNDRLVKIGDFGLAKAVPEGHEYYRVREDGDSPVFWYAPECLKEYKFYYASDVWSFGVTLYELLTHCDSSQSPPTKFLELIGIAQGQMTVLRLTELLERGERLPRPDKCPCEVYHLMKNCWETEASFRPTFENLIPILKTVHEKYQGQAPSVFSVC
Where [1] appears, read: Data 1, read-out: JAK1 IC50 Data 1.
[2] abbreviates: Data 2, read-out: JAK1 IC50 Data 2.
Where [3] appears, read: Data 1, read-out: JAK2 IC50 Data 1.
[4] abbreviates: Data 2, read-out: JAK2 IC50 Data 2.
Setting [5] is: Data 1, read-out: JAK3 IC50 Data 1.
The mark [6] stands for this setting: Data 2, read-out: JAK3 IC50 Data 2.
Where [7] appears, read: Data 1, read-out: TYK2 IC50 Data 1.
Setting [8] is: Data 2, read-out: TYK2 IC50 Data 2.

Read-outs that look alike come from different tables or passages of the source.

Sequence of JAK2 (O60674 whole entry): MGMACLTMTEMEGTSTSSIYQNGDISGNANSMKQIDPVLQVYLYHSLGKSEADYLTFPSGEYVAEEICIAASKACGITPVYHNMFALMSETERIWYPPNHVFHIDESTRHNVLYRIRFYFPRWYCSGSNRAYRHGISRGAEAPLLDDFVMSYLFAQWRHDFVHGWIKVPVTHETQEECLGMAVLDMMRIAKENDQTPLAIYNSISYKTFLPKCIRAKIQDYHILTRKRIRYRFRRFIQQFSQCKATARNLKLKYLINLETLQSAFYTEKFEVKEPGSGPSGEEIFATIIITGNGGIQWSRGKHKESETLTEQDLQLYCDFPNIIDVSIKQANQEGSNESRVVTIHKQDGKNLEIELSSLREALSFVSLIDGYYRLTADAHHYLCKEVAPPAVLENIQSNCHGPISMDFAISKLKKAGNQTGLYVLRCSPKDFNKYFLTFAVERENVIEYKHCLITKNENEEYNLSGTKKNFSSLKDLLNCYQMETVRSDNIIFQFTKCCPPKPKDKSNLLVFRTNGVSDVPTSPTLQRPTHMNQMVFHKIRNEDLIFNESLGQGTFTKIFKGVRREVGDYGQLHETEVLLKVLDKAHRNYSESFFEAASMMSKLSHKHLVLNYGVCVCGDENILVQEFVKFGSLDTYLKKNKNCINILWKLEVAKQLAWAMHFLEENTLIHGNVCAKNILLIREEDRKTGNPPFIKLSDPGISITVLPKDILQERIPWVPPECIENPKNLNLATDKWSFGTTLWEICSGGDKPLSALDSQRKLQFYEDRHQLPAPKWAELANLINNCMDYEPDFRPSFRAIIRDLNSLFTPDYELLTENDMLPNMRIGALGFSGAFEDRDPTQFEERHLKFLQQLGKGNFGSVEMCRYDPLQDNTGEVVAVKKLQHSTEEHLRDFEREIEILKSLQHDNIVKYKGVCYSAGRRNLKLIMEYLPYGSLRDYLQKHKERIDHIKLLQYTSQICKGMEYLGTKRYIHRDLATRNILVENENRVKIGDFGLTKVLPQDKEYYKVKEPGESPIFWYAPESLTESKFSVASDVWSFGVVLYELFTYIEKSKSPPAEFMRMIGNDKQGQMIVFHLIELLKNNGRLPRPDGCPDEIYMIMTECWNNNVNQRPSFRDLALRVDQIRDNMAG

For `N#CCNC(=O)c1ccc(-c2ccnc(Nc3ccc(N4CC5CC(C4)O5)cc3)n2)cc1` [Compound 3, 4-(2-((4-(6-oxa-3-azabicyclo[3.1.1]heptan-3-yl)phenyl)amino)pyrimidin-4-yl)-N-(cyanomethyl)benzamide], the IC50 at JAK1 (setting [1]) came out at 32.3 nM; on JAK1 (setting [2]), 41.7 nM; at JAK2 (setting [3]), 47 nM; on JAK2 (setting [4]), 45 nM; at JAK3 (setting [5]), 80.1 nM; on JAK3 (setting [6]) it was 82.4 nM. The 50% inhibitory concentration (IC50) at TYK2 (setting [7]) is 6.83 nM; at TYK2 (setting [8]) it was 7.3 nM.
Take `N#CCNC(=O)c1ccc(-c2ccnc(Nc3ccc(N4CC[C@]5(CCO5)C4)cc3)n2)cc1` [Compound 7, (S)-4-(2-((4-(1-oxa-6-azaspiro[3.4]octan-6-yl)phenyl)amino)pyrimidin-4-yl)-N-(cyanomethyl)benzamide]: the IC50 turned out to be 31.5 nM on JAK1 (setting [1]); 29.2 nM at JAK1 (setting [2]); 30.3 nM at JAK2 (setting [3]); 34 nM on JAK2 (setting [4]); 60.9 nM at JAK3 (setting [5]); 50.8 nM at JAK3 (setting [6]). In addition, the results for the IC50 on TYK2 (setting [7]) and on TYK2 (setting [8]) were 4.87 nM and 4.29 nM, respectively.
As for `N#CCNC(=O)c1ccc(-c2ccnc(Nc3ccc(N4CC5(COC5)C4)cc3)n2)cc1` [Compound 11, 4-(2-((4-(2-oxa-6-azaspiro[3.3]heptan-6-yl)phenyl)amino)pyrimidin-4-yl)-N-(cyanomethyl)benzamide], the IC50 worked out at 32.8 nM at JAK1 (setting [1]); 47.4 nM at JAK1 (setting [2]); 10.6 nM at JAK2 (setting [3]); 10.8 nM on JAK2 (setting [4]); 33.8 nM on JAK3 (setting [5]); 26.3 nM at JAK3 (setting [6]). Moreover, the IC50 came out at 9.47 nM on TYK2 (setting [7]) and 8.54 nM at TYK2 (setting [8]).
`N#CCNC(=O)c1ccc(-c2ccnc(Nc3ccc(N4C[C@H]5C[C@@H]4CO5)cc3)n2)cc1` [Compound 10, 4-(2-((4-((1R,4R)-2-oxa-5-azabicyclo[2.2.1]heptan-5-yl)phenyl)amino)pyrimidin-4-yl)-N-(cyanomethyl)benzamide]: the IC50 amounted to 16 nM on JAK1 (setting [1]); 15.9 nM on JAK1 (setting [2]); 17 nM on JAK2 (setting [3]); 16.8 nM at JAK2 (setting [4]); 22.1 nM at JAK3 (setting [5]); 27 nM at JAK3 (setting [6]). Also, the IC50 at TYK2 (setting [7]) was 4.31 nM; at TYK2 (setting [8]), 2.58 nM.
Consider `N#CCNC(=O)c1ccc(-c2ccnc(Nc3ccc(N4CCC[C@@]5(CCO5)C4)cc3)n2)cc1` [Compound 6, (R)-4-(2-((4-(1-oxa-6-azaspiro[3.5]nonan-6-yl)phenyl)amino)pyrimidin-4-yl)-N-(cyanomethyl)benzamide], for which the concentration for half-maximal inhibition (IC50) on JAK1 (setting [1]) is 17.5 nM; at JAK1 (setting [2]), 19.8 nM; on JAK2 (setting [3]) it was 14.2 nM; at JAK2 (setting [4]) it was 14.1 nM; at JAK3 (setting [5]), 33.4 nM; at JAK3 (setting [6]) it was 32.7 nM. Moreover, the IC50 at TYK2 (setting [7]) is 2.94 nM; at TYK2 (setting [8]), 2.14 nM.
In the case of `N#CCNC(=O)c1ccc(-c2ccnc(Nc3ccc(N4C[C@@H]5C[C@H]4CO5)cc3)n2)cc1` [Compound 9, 4-(2-((4-((1S,4S)-2-oxa-5-azabicyclo[2.2.1]heptan-5-yl)phenyl)amino)pyrimidin-4-yl)-N-(cyanomethyl)benzamide], the concentration for half-maximal inhibition (IC50) at JAK1 (setting [1]) is 22.4 nM; at JAK1 (setting [2]) it was 21.7 nM; at JAK2 (setting [3]), 11.1 nM; on JAK2 (setting [4]), 13.4 nM; on JAK3 (setting [5]) it was 12.8 nM; on JAK3 (setting [6]) it was 14 nM. For the same compound, the concentration for half-maximal inhibition (IC50) on TYK2 (setting [7]) turned out to be 8.07 nM; on TYK2 (setting [8]) it was 7.4 nM.
Take `N#CCNC(=O)c1ccc(-c2ccnc(Nc3ccc(N4CCC5(CCO5)CC4)cc3)n2)cc1` [Compound 2, 4-(2-((4-(1-oxa-7-azaspiro[3.5]nonan-7-yl)phenyl)amino)pyrimidin-4-yl)-N-(cyanomethyl)benzamide]: the half-inhibitory concentration (IC50) on JAK1 (setting [1]) amounted to 30.6 nM; at JAK1 (setting [2]), 37.9 nM; on JAK2 (setting [3]) it was 22.2 nM; on JAK2 (setting [4]) it was 24.5 nM; on JAK3 (setting [5]), 41.8 nM; at JAK3 (setting [6]), 44.8 nM. In addition, the values for the half-inhibitory concentration (IC50) on TYK2 (setting [7]) and at TYK2 (setting [8]) were 5.09 nM and 5.65 nM, respectively.
As for `N#CCNC(=O)c1ccc(-c2ccnc(Nc3ccc(N4CC5(CCO5)C4)cc3)n2)cc1` [Compound 1, 4-(2-((4-(1-oxa-6-azaspiro[3.3]heptan-6-yl)phenyl)amino)pyrimidin-4-yl)-N-(cyanomethyl)benzamide], the IC50 amounted to 224 nM on JAK1 (setting [1]); 215 nM on JAK1 (setting [2]); 108 nM on JAK2 (setting [3]); 103 nM at JAK2 (setting [4]); 213 nM on JAK3 (setting [5]); 194 nM on JAK3 (setting [6]). In addition, the half-inhibitory concentration (IC50) on TYK2 (setting [7]) amounted to 38 nM; at TYK2 (setting [8]), 35 nM.
As to `N#CCNC(=O)c1ccc(-c2ccnc(Nc3ccc(N4CC5CCC(C4)O5)cc3)n2)cc1` [Compound 4, 4-(2-((4-(8-oxa-3-azabicyclo[3.2.1]octan-3-yl)phenyl)amino)pyrimidin-4-yl)-N-(cyanomethyl)benzamide], the IC50 at JAK1 (setting [1]) is 28.8 nM; at JAK1 (setting [2]), 28.6 nM; at JAK2 (setting [3]) it was 29.3 nM; on JAK2 (setting [4]), 29.1 nM; on JAK3 (setting [5]), 92.3 nM; at JAK3 (setting [6]), 80.8 nM. Further, the figures for the half-inhibitory concentration (IC50) at TYK2 (setting [7]) and at TYK2 (setting [8]) were 5.22 nM and 6.17 nM, respectively.
`N#CCNC(=O)c1ccc(-c2ccnc(Nc3ccc(N4CC[C@@]5(CCO5)C4)cc3)n2)cc1` [Compound 8, (R)-4-(2-((4-(1-oxa-6-azaspiro[3.4]octan-6-yl)phenyl)amino)pyrimidin-4-yl)-N-(cyanomethyl)benzamide]: the 50% inhibitory concentration (IC50) at JAK1 (setting [1]) was found to be 56.9 nM; at JAK1 (setting [2]), 35.7 nM; on JAK2 (setting [3]) it was 43.5 nM; on JAK2 (setting [4]), 46.4 nM; on JAK3 (setting [5]), 79.3 nM; on JAK3 (setting [6]), 78.5 nM. Also, the IC50 on TYK2 (setting [7]) and at TYK2 (setting [8]) was 9.98 nM in each case.
Take `N#CCNC(=O)c1ccc(-c2ccnc(Nc3ccc(N4CCC[C@]5(CCO5)C4)cc3)n2)cc1` [Compound 5, (S)-4-(2-((4-(1-oxa-6-azaspiro[3.5]nonan-6-yl)phenyl)amino)pyrimidin-4-yl)-N-(cyanomethyl)benzamide]: the IC50 on JAK1 (setting [1]) was 10.1 nM; on JAK1 (setting [2]), 10.2 nM; on JAK2 (setting [3]) it was 30 nM; on JAK2 (setting [4]), 25.9 nM; at JAK3 (setting [5]) it was 60.9 nM; at JAK3 (setting [6]), 56.3 nM. Also, the 50% inhibitory concentration (IC50) came out at 0.69 nM on TYK2 (setting [7]) and 0.91 nM at TYK2 (setting [8]).

One may read the IC50 as the concentration needed to halve the response being measured.
